In the supplement of paper PMC7017272:
± gives the standard deviation of the averaged measurements.

Assays:
Conditions in all cases: treatment time: 3 days
[1] = system: UT-SCC-24A; assay: drug sensitivity score (DSS); higher = more sensitive
Experimental: (§1)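 HNSCC cell lines (500 cells/well, 384-well) were cultured on plastic, on top of (2D) or embedded (3D) in Matrigel or human leiomyoma matrix Myogel (500 ug/mL; Myogel 3D mixed with rat collagen I). Cells were treated for 3 days with 5 ten-fold concentrations of each drug, and viability was read by CellTiter-Glo. Suffixes _1/_2/_3 on drug names are replicates.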

[2] = system: UT-SCC-24A; assay: maximal % inhibition of viability relative to DMSO; higher = stronger effect
Experimental: as §1, with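 “CellTiter-Glo. Viability was normalised to DMSO (0% inhibition) and 100 uM benzethonium chloride (100% inhibition) controls and fitted with the FIMM DSRT pipeline to give IC50 (nM), maximal % inhibition and the drug sensitivity score (DSS).” for “CellTiter-Glo.”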

[3] = system: UT-SCC-14; assay: drug sensitivity score (DSS); higher = more sensitive; extreme values may be limits of the assay
Summary of the method: (§2)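 Viability of HPV-negative HNSCC cell lines was measured by CellTiter-Glo 2.0 luminescence. Cells were seeded at 500 cells/well in 384-well plates on plastic, on Matrigel- or Myogel-coated wells (500 µg/mL), or embedded in Matrigel or Myogel plus rat collagen I, then given compounds at five 10-fold concentrations for 3 days, with signals normalised to vehicle (0.1% DMSO) and cell-killing control wells. Fitting of percent-inhibition dose–response curves in the FIMM pipeline yielded IC50, maximal inhibition and drug sensitivity score.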

[4] = system: UT-SCC-24B; assay: as above
Summary of the method: as §2

[5] = system: UT-SCC-106A; assay: relative IC50 (midpoint of the fitted curve; maximal inhibition may be below 50%); higher = less potent
Summary of the method: as §2

[6] = system: UT-SCC-14; assay: as above
Summary of the method: as §2

[7] = system: UT-SCC-24B; assay: as above
Summary of the method: as §2

[8] = system: UT-SCC-28; assay: as above
Summary of the method: as §2

[9] = system: UT-SCC-40; assay: as above
Summary of the method: as §2

[10] = system: UT-SCC-42A; assay: as above
Summary of the method: as §2

[11] = system: UT-SCC-42B; assay: as above
Summary of the method: as §2

[12] = system: UT-SCC-44; assay: as above
Summary of the method: as §2

[13] = system: UT-SCC-73; assay: as above
Summary of the method: as §2

[14] = system: UT-SCC-81; assay: as above
Summary of the method: as §2

[15] = system: UT-SCC-8; assay: as above
Summary of the method: as §2

[16] = system: UT-SCC-24A; assay: relative IC50 (midpoint of the fitted curve; maximal inhibition may be below 50%); higher = less potent
Experimental: as §1, with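 “CellTiter-Glo. Viability was normalised to DMSO (0% inhibition) and 100 uM benzethonium chloride (100% inhibition) controls and fitted with the FIMM DSRT pipeline to give IC50 (nM), maximal % inhibition and the drug sensitivity score (DSS).” for “CellTiter-Glo.”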

[17] = culture condition: embedded in Matrigel
[18] = culture condition: embedded in Myogel + collagen I
[19] = culture condition: on top of Matrigel
[20] = culture condition: on top of Myogel
[21] = culture condition: plastic 2D (no matrix)

- relative IC50 [5, 17]: 336 nM
- relative IC50 [5, 18]: 862 nM
- relative IC50 [5, 19]: 488 nM
- relative IC50 [5, 20]: 1470 nM
- relative IC50 [5, 21]: 936 nM
- relative IC50 [6, 17]: 1210 nM
- relative IC50 [6, 18]: 1810 nM
- relative IC50 [6, 19]: 1510 nM
- relative IC50 [6, 20]: 1930 nM
- relative IC50 [6, 21]: 2000 nM
- relative IC50 [7, 17]: 891 nM
- relative IC50 [7, 18]: 736 nM
- relative IC50 [7, 19]: 874 nM
- relative IC50 [7, 20]: 1150 nM
- relative IC50 [7, 21]: 850 nM
- relative IC50 [8, 17]: 330 nM
- relative IC50 [8, 18]: 1050 nM
- relative IC50 [8, 19]: 244 nM
- relative IC50 [8, 21]: 352 nM
- relative IC50 [9, 17]: 1240 nM
- relative IC50 [9, 18]: 1560 nM
- relative IC50 [9, 19]: 1520 nM
- relative IC50 [9, 20]: 1870 nM
- relative IC50 [9, 21]: 1820 nM
- relative IC50 [10, 17]: 1510 nM
- relative IC50 [10, 18]: 1110 nM
- relative IC50 [10, 19]: 1320 nM
- relative IC50 [10, 20]: 1410 nM
- relative IC50 [10, 21]: 1090 nM
- relative IC50 [11, 17]: 1900 nM
- relative IC50 [11, 19]: 2320 nM
- relative IC50 [11, 20]: 2160 nM
- relative IC50 [11, 21]: 2390 nM
- relative IC50 [12, 17]: 279 nM
- relative IC50 [12, 18]: 1450 nM
- relative IC50 [12, 19]: 452 nM
- relative IC50 [12, 21]: 1130 nM
- relative IC50 [13, 17]: 1110 nM
- relative IC50 [13, 18]: 1170 nM
- relative IC50 [13, 19]: 1450 nM
- relative IC50 [13, 20]: 1540 nM
- relative IC50 [13, 21]: 1670 nM
- relative IC50 [14, 17]: 396 nM
- relative IC50 [14, 18]: 748 nM
- relative IC50 [14, 19]: 1300 nM
- relative IC50 [14, 20]: 1040 nM
- relative IC50 [14, 21]: 1140 nM
- relative IC50 [15, 17]: 1330 nM
- relative IC50 [15, 18]: 2370 nM
- relative IC50 [15, 19]: 1380 nM
- relative IC50 [15, 20]: 1280 nM
- relative IC50 [15, 21]: 1410 nM
- relative IC50 [16, 17]: 577 nM
- relative IC50 [16, 18]: 436 nM
- relative IC50 [16, 19]: 483 nM
- relative IC50 [16, 20]: 818 nM
- relative IC50 [16, 21]: 416 nM
SMILES: Cc1c(CN2CCN(C(=O)[C@H](C)O)CC2)sc2c(N3CCOCC3)nc(-c3cnc(N)nc3)nc12 [Apitolisib]
- drug sensitivity score [1, 17]: 12.5 ± 2.4 DSS
- drug sensitivity score [1, 18]: 13.1 ± 1.9 DSS
- drug sensitivity score [1, 19]: 13 ± 0.85 DSS
- drug sensitivity score [1, 20]: 9.97 ± 0.15 DSS
- drug sensitivity score [1, 21]: 13.5 ± 1.6 DSS
- maximal % inhibition of viability [2, 17]: 90.3 ± 1.6%
- maximal % inhibition of viability [2, 18]: 85.4 ± 2.3%
- maximal % inhibition of viability [2, 19]: 87.7 ± 0.2%
- maximal % inhibition of viability [2, 20]: 83.4 ± 1.9%
- maximal % inhibition of viability [2, 21]: 88.57 ± 0.29%
- drug sensitivity score [3, 17]: 8.77 ± 1.1 DSS
- drug sensitivity score [3, 18]: 6.9 ± 1.9 DSS
- drug sensitivity score [3, 19]: 7.97 ± 1.6 DSS
- drug sensitivity score [3, 20]: 6.43 ± 1.1 DSS
- drug sensitivity score [3, 21]: 6.47 ± 1.7 DSS
- drug sensitivity score [4, 17]: 10.8 ± 1.8 DSS
- drug sensitivity score [4, 18]: 11.8 ± 1.1 DSS
- drug sensitivity score [4, 19]: 10.6 ± 0.76 DSS
- drug sensitivity score [4, 20]: 9.6 ± 0.2 DSS
- drug sensitivity score [4, 21]: 11.1 ± 1 DSS
